The test system of test [1] is Radical scavenging activity. The test can be described thus: Antioxidant activity assessed as DPPH radical scavenging activity by densitometric analysis. The class given is functional. On the technique in general: Loss of DPPH colour is used to gauge radical scavenging.
Test [2] concerns Radical scavenging activity. Kind of test: Antioxidant activity assessed as DPPH radical scavenging activity by densitometric analysis relative to ascorbic acid. It counts as functional.

The term IC50 denotes the midpoint of a concentration-inhibition curve. On to `COc1cc(C2Oc3cc([C@H]4Oc5c(O)c(O)cc(O)c5C(=O)[C@@H]4O)ccc3OC2CO)ccc1O` (mixture of isomers), for which the IC50 in test [1] was 30.3 µM. Besides, the Activity in test [2] is 25%.
Take `COc1cc(C2Oc3cc([C@H]4Oc5cc(OS(=O)(=O)O)cc(O)c5C(=O)[C@@H]4O)ccc3OC2CO)ccc1O` (mixture of isomers): the IC50 in test [1] was determined as 831 µM.
Still for that read-out and setting: then `COc1cc(C2Oc3cc(-c4oc5cc(OS(=O)(=O)O)cc(O)c5c(=O)c4O)ccc3OC2CO)ccc1O` (mixture of isomers), with 99.7 µM; and `COc1cc(C2Oc3cc([C@H]4Oc5cc(O)cc(O)c5C(=O)[C@@H]4O)ccc3OC2CO)ccc1O` (mixture of isomers) [SILIBININ], with 284 µM.
With `O=C1O[C@H]([C@@H](O)CO)C(O)=C1O` [ASCORBIC ACID], in test [1], the concentration for half-maximal inhibition (IC50) turned out to be 7.7 µM.

Values taken from ChEMBL document CHEMBL2016549, “Bioconversion of silybin to phase I and II microbial metabolites with retained antioxidant activity” (Bioorg Med Chem, 2012).
